Test results published in patent US20110040086A1, “Novel Beta-Lactam Antibiotics, Methods for Their Production, and Their Use” (DRITTE PATENTPORTFOLIO BETEILIGUNGSGESELLSCHAFT MB, priority 2007, published 2011).

Assays:
[1] = system: S. aureus 38418; test: agar diffusion test (Test System II, multi-resistant germs); assay type: cell-based, Staphylococcus aureus
Method: (§1) The test substances are deposited in stepped quantities (10 μg, 50 μg, 100 μg) onto active ingredient carriers (sensi-discs). For this purpose, the test substances are dissolved in methanol or A. dest. according to their solubility. Each inoculated plate is fitted with 3 test sheets.
(§2) Test System II (Effect Against Multi-Resistant Germs)
(§3) For this purpose, bacteria is cultivated on Müller-Hinton-Agar II plates.
(§4) With 1-1.5 ml physiological saline solution, a bacteria suspension of McFarland 0.5 (corresponds to a bacteria density of 150×10^6 germs) is produced. Then, with a sterile glass rod, a small drop of bacteria suspension is placed on the Müller-Hinton-Agar plate and coated in three layers (vertical, horizontal, and transverse). Thereafter, the sensi-discs with the novel semi-synthetic test substances are placed on top. The fitted plates are incubated for 18-20 hours at 37° C. After incubation, the diameters of the zones of inhibition are read as a measure for the antimicrobial activity of the novel semi-synthetic test substances.

[2] = system: S. aureus ATCC 6538; test: as above; assay type: cell-based, Staphylococcus aureus
Method: as §1, §2, §3, §4

[3] = system: S. aureus 39105; test: as above; assay type: cell-based, Staphylococcus aureus; set-up: key: r = resistant (no detectable zone of inhibition)
Method: as §1, §2, §3, §4

[4] = system: S. aureus 526; test: as above; assay type: cell-based, Staphylococcus aureus; set-up: key: r = resistant (no detectable zone of inhibition)
Method: as §1, §2, §3, §4

[5] = system: S. aureus North Germany strain; test: as above; assay type: cell-based, Staphylococcus aureus; set-up: key: r = resistant (no detectable zone of inhibition)
Method: as §1, §2, §3, §4

[6] = system: S. aureus 520; test: as above; assay type: cell-based, Staphylococcus aureus; set-up: key: r = resistant (no detectable zone of inhibition)
Method: as §1, §2, §3, §4

[7] = system: S. aureus 34289; test: as above; assay type: cell-based, Staphylococcus aureus; set-up: key: r = resistant (no detectable zone of inhibition)
Method: as §1, §2, §3, §4

[8] = system: S. aureus 33490; test: as above; assay type: cell-based, Staphylococcus aureus; set-up: key: r = resistant (no detectable zone of inhibition)
Method: as §1, §2, §3, §4

[9] = system: S. aureus 36881; test: as above; assay type: cell-based, Staphylococcus aureus; set-up: key: r = resistant (no detectable zone of inhibition)
Method: as §1, §2, §3, §4

[10] = system: S. epidermidis 125; test: as above; assay type: cell-based, Staphylococcus epidermidis
Method: as §1, §2, §3, §4

[11] = system: E. faecalis 945; test: as above; assay type: cell-based, Enterococcus faecalis; set-up: key: r = resistant (no detectable zone of inhibition)
Method: as §1, §2, §3, §4

[12] = system: Escherichia coli SBUG 1135; test: agar diffusion test (Test System 1, antimicrobial effect); assay type: cell-based; set-up: key: r = resistant (no detectable zone of inhibition)
Method: (§5) Test System 1 (Antimicrobial Effect)
(§6) The test germs Escherichia coli SBUG 1135 and Bacillus megaterium SBUG 1152 are drawn overnight (17 hours at 37° C.) in 5 ml nutrient medium II. The incubation is performed in a shaking incubator (INFORS AG CH 4103, Bottmingen, Switzerland) at a shaking frequency of 180 rpm.
(§7) After 17 h incubation time, Escherichia coli has reached a cell density of ca. 2.4×10^10 cells/ml and Bacillus megaterium a cell density of ca. 2.1×10^8 cells/ml.
(§8) The seeding of bacteria in agar is selected so that, dense, but not confluent individual colonies develop after the incubation.
Escherichia coli: the ÜN is diluted 1:100 with physiological saline solution, of which 0.1 ml is converted into 10 ml nutrient agar. That corresponds to a cell count of 10^6.
(§9) The inoculated nutrient agar is set in sterile Petri dishes and left standing for a few minutes for drying.
as §1
(§10) After a 20-hour incubation time at 37° C., the zones of inhibition around the individual test sheets could be measured. The diameter of the zone of inhibition is specified in mm.

[13] = system: B. subtilis AWD 166; test: agar diffusion test (antimicrobial effect); assay type: cell-based, Bacillus subtilis
Method: as §8, §9, §1, §10

[14] = system: Enterococcus faecalis 769; test: agar diffusion test (Test System II, multi-resistant germs); assay type: cell-based; set-up: key: r = resistant (no detectable zone of inhibition)
Method: as §1, §2, §3, §4

[15] = system: Staphylococcus aureus 315; test: as above; assay type: cell-based; set-up: key: r = resistant (no detectable zone of inhibition)
Method: as §1, §2, §3, §4

[16] = system: S. epidermidis 1068; test: as above; assay type: cell-based, Staphylococcus epidermidis; set-up: key: r = resistant (no detectable zone of inhibition)
Method: as §1, §2, §3, §4

[17] = system: S. epidermidis 563; test: as above; assay type: cell-based, Staphylococcus epidermidis; set-up: key: r = resistant (no detectable zone of inhibition)
Method: as §1, §2, §3, §4

[18] = system: S. epidermidis 1071; test: as above; assay type: cell-based, Staphylococcus epidermidis; set-up: key: r = resistant (no detectable zone of inhibition)
Method: as §1, §2, §3, §4

[19] = system: S. epidermidis 847; test: as above; assay type: cell-based, Staphylococcus epidermidis; set-up: key: r = resistant (no detectable zone of inhibition)
Method: as §1, §2, §3, §4

[20] = system: Bacillus megaterium SBUG 1152; test: agar diffusion test (Test System 1, antimicrobial effect); assay type: cell-based
Method: as §5, §6, §7, §8
Bacillus megaterium: 0.1 ml of non-diluted overnight culture (ÜN) in 10 ml nutrient agar corresponds to a cell count of 10^6.
as §9, §1, §10

7-[2-(2-ethoxycarbonyl-3,6-dioxocyclohexa-1,4-dienylamino)-2-phenyl-acetylamino]-desacetoxycephalosporanic acid [1h]
Diameter of zone of inhibition ([1]; Quantity n [mol] 0.019): 12 mm
Diameter of zone of inhibition ([1]; Quantity n [mol] 0.09): 22 mm
Diameter of zone of inhibition ([1]; Quantity n [mol] 0.19): 28 mm
Diameter of zone of inhibition ([2]; Quantity n 0.019): 20 mm
Diameter of zone of inhibition ([2]; Quantity n 0.09): 28 mm
Diameter of zone of inhibition ([2]; Quantity n 0.19): 30 mm
Diameter of zone of inhibition ([3]; Quantity n 0.019): r
Diameter of zone of inhibition ([3]; Quantity n 0.09): 8 mm
Diameter of zone of inhibition ([3]; Quantity n 0.19): 14 mm
Diameter of zone of inhibition ([4]; Quantity n 0.019): r
Diameter of zone of inhibition ([4]; Quantity n 0.09): r
Diameter of zone of inhibition ([4]; Quantity n 0.19): r
Diameter of zone of inhibition ([5]; Quantity n 0.019): r
Diameter of zone of inhibition ([5]; Quantity n 0.09): 8 mm
Diameter of zone of inhibition ([5]; Quantity n 0.19): 12 mm
Diameter of zone of inhibition ([6]; Quantity n [mol] 0.019): r
Diameter of zone of inhibition ([6]; Quantity n [mol] 0.09): r
Diameter of zone of inhibition ([6]; Quantity n [mol] 0.19): r
Diameter of zone of inhibition ([7]; Quantity n [mol] 0.019): r
Diameter of zone of inhibition ([7]; Quantity n [mol] 0.09): r
Diameter of zone of inhibition ([7]; Quantity n [mol] 0.19): r
Diameter of zone of inhibition ([8]; Quantity n [μmol] 0.019): r
Diameter of zone of inhibition ([8]; Quantity n [μmol] 0.09): 16 mm
Diameter of zone of inhibition ([8]; Quantity n [μmol] 0.19): 20 mm
Diameter of zone of inhibition ([9]; Quantity n 0.019): r
Diameter of zone of inhibition ([9]; Quantity n 0.09): r
Diameter of zone of inhibition ([9]; Quantity n 0.19): 12 mm
Diameter of zone of inhibition ([10]; Quantity n 0.019): 12 mm
Diameter of zone of inhibition ([10]; Quantity n 0.09): 24 mm
Diameter of zone of inhibition ([10]; Quantity n 0.19): 28 mm
Diameter of zone of inhibition ([11]; Quantity n 0.019): r
Diameter of zone of inhibition ([11]; Quantity n 0.09): r
Diameter of zone of inhibition ([11]; Quantity n 0.19): r
Diameter of zone of inhibition ([12]; Quantity n 0.019): r
Diameter of zone of inhibition ([12]; Quantity n 0.09): 14 mm
Diameter of zone of inhibition ([12]; Quantity n 0.19): 18 mm
Diameter of zone of inhibition ([13]; Quantity n 0.019): 22 mm
Diameter of zone of inhibition ([13]; Quantity n 0.09): 30 mm
Diameter of zone of inhibition ([13]; Quantity n 0.19): 32 mm
Diameter of zone of inhibition ([14]; Quantity n 0.019): r
Diameter of zone of inhibition ([14]; Quantity n 0.09): r
Diameter of zone of inhibition ([14]; Quantity n 0.19): r
Diameter of zone of inhibition ([15]; Quantity n 0.019): r
Diameter of zone of inhibition ([15]; Quantity n 0.09): r
Diameter of zone of inhibition ([15]; Quantity n 0.19): 10 mm
Diameter of zone of inhibition ([16]; Quantity n 0.019): r
Diameter of zone of inhibition ([16]; Quantity n 0.09): 10 mm
Diameter of zone of inhibition ([16]; Quantity n 0.19): 16 mm
Diameter of zone of inhibition ([17]; Quantity n 0.019): r
Diameter of zone of inhibition ([17]; Quantity n 0.09): 14 mm
Diameter of zone of inhibition ([17]; Quantity n 0.19): 18 mm
Diameter of zone of inhibition ([18]; Quantity n 0.019): r
Diameter of zone of inhibition ([18]; Quantity n 0.09): 14 mm
Diameter of zone of inhibition ([18]; Quantity n 0.19): 20 mm
Diameter of zone of inhibition ([19]; Quantity n [mol] 0.019): r
Diameter of zone of inhibition ([19]; Quantity n [mol] 0.09): 12 mm
Diameter of zone of inhibition ([19]; Quantity n [mol] 0.19): 18 mm
Diameter of zone of inhibition ([20]; Quantity n 0.019): 18 mm
Diameter of zone of inhibition ([20]; Quantity n 0.09): 28 mm
Diameter of zone of inhibition ([20]; Quantity n 0.19): 32 mm
